Assay results published in patent US12070452B2, “Compounds targeting HSP110 protein for cancer treatment” (INSERM (Institut National de la Santé et de la Recherche …, priority 2018, dated 2024).
Entries after “also recorded” stand apart in the source; their conditions may differ.

Experiments:
SW480 cells = test: Cell proliferation, Cell Trace Violet flow cytometry, SW480; assay type: cell-based, human; details: SW480 cells with shRNA control, 10 μM, 96 h
Experimental: FIG. 4A: Relative quantification of cell proliferation in SW480 cells transfected with shRNA for shRNA control (shCtrl) (from the first to the fourth columns from left to right) or HSP110-silencing (sh110) (from the fifth to the last columns, from left to right) treated with Ctrl (DMSO), compound 33, compound 52, and comparative compound 61 at a concentration of 10 μM during 96 h (Histogram columns from the left to the right). Ordinate: Percentage of SW480 cell proliferation (scale 20) for the upper figure; Statistical analysis has been performed by ANOVA **: (p<0.05); ***: p<0.005. Western blot of HSP110 and actin (first and second line of blots) for the shCtrl SW480 cells and sh110 SW480 cells (first and second columns).
(§1) Colorectal cells lines were purchased from the American Type Culture Collection. CT-26 and HCT116 were cultured in Roswell Park Memorial Institute 1640 medium. […]
(§2) Proliferation was determined by staining cells with Cell Trace Violet (Invitrogen-C34557) according to the manufacturer's procedure. Cell divisions were detected over 96 h by flow cytometry (LSRII cytometer) and the number of cell generations was estimated by ModFit software. […]

Bcl2 and Bcl-xL = test: Western blot of anti-apoptotic proteins Bcl2 and Bcl-xL in DLBCL cell lines; assay type: cell-based, human; details: TMD8 and HBL1, 76 h in vitro treatment
Experimental: FIG. 10D: Expression analysis of BcL2 (first line), BcL-XL (second line), and Actin (third line) in TMD8 human B cell lymphoma cell line or in HBL1 human diffuse large B-cell lymphoma cell line, both cell lines being treated with Control (DMSO), compound 33 and compound 52.
It has also been shown that compounds 33 and 52 reduce the expression of the anti-apoptotic proteins Bcl2 and Bcl-xL in these two human diffuse large B-cell lymphoma cell lines, as determined by Western blotting after a 76 h in vitro treatment with compound 33 or 52.

HCT116 cells = test: Cell proliferation, Cell Trace Violet flow cytometry, HCT116; assay type: cell-based, human; details: HCT116 cells with shRNA control, 10 μM, 96 h
Experimental: FIG. 4B: Relative quantification of cell proliferation in HCT116 cells transfected with shRNA for shRNA control (shCtrl) (from the first to the fourth columns from left to right) or HSP110-silencing (sh110) ((from the fifth to the last columns, from left to right) left to right) treated with Ctrl (DMSO), compound 33, compound 52, and comparative compound 61 at a concentration of 10 μM during 96 h (Histogram from the left to the right). Ordinate: Percentage of HCT116 cell proliferation (scale 20) for the lower figure. Statistical analysis has been performed by ANOVA **: (p<0.05); ***: p<0.005. Western blot of HSP110 and actin (first and second line of blots) for the shCtrl HCT116 cells and sh110 HCT116 cells (first and second columns).
as §1, §2

NFκB signaling pathway = test: Western blot of NFκB signaling and Myd88 in DLBCL cell lines; assay type: cell-based, human; details: for IkB phosphorylation (P-IKB): two DLBCL cell lines, 24 h of treatment
Experimental: FIG. 10B: Expression of HSP110 (first line), P-P65 (S276) (second line), P65 (third line), Myd88 (fourth line) and Actin (fifth line) in TMD8 human B cell lymphoma cell line (left part of FIG. 10B) or in HBL1 human diffuse large B-cell lymphoma cell line (right part of FIG. 10B), both cell lines being treated with Control (DMSO) and compound 33.
FIG. 10C: Expression, after 24 h of treatment, of HSP110 (first line), P-IKB (second line), IKB (third line) and Actin (fourth line) in TMD8 human B cell lymphoma cell line (right part of FIG. 10C) or in OCI-Ly3 human diffuse large B-cell lymphoma cell line (left part of FIG. 10C), both cell lines being treated with Control (DMSO), control compound 61, compound 52 and compound 33.

HSP110:STAT3 complex = target: T1, HSP110:STAT3 complex (Homo sapiens, UniProt Q92598); test: Immunoprecipitation of HSP110:STAT3 complex in SW480 cells; assay type: cell-based; details: SW480 shCtrl cells, 10 μM, 48 h
T1 construct: disrupting HSP110:STAT3 complex within the cell using human colorectal SW480 cancer cells; endogenous in cells; host or cells: SW480 cells carrying control shRNA (shCtrl); sh110 cells as HSP110-depleted control
Experimental: FIG. 2A: Immunoprecipitation (IP) analysis of HSP110 protein (first line), STAT3 protein (second line) compared with total Immunoglobuline (Ig) and actin in SW480 cells treated with (from left to the right column) non-relevant antibody as control (called NT a Normal rabbit IgG (sc-2027) from Santa Cruz Biotechnologies), compound 52 (related to formula (III)), compound 33 (related to formula (II)), compound 51 (related to formula (IV)) and comparative compound 61 at a concentration of 10 μM during 48 h on shCtrl cells transfected with shRNA for shRNA control (referenced ShCtrl IP:STAT3 for the five first columns) or HSP110-silencing (sh110) (referenced sh110-IP:STAT3 for the two last columns) (from the left to the right columns). Immunoprecipitation analysis of HSP110 (first line), STAT3 (second line) compared with total Ig and actin (second blot in the right) is observed with shCtrl cells transfected with shRNA for shRNA control (shCtrl) or HSP110-silencing (sh110) (left to right columns).
FIG. 2B: Quantification of HSP110:STAT3 disruption in percentage considering the total amount of HSP110 protein normalized by the signal intensity of the Ig band of FIG. 1 panel A. (Ordinate: Percentage of STAT3:HSP110 protein interaction (scale 50)). The histogram measured quantification in percentage for ShCtrl IP: STAT3 treated with Ctrl, compounds 52, 33, 51 and comparative compound 61, and for shCtrl cells transfected with shRNA for shRNA control referenced ShCtrl IP: STAT3) or HSP110-silencing (sh110) (referenced sh110-IP: STAT3) (from the left to the right column)
Immunoprecipitation test were realized on human colorectal cancer cells (SW480 and HCT116 cell lines), using a control depleted in HSP110 called Sh110 and a not depleted cells in HSP110. STAT3 phosphorylation is then […] by compounds 33 and 52. Depletion of HSP110 in the negative control blocked the phosphorylation of STAT3 without affecting STAT3 overall levels (FIGS. 2 and 3).

T1 sequence (Q92598 2-858 limits assumed, one chain of several): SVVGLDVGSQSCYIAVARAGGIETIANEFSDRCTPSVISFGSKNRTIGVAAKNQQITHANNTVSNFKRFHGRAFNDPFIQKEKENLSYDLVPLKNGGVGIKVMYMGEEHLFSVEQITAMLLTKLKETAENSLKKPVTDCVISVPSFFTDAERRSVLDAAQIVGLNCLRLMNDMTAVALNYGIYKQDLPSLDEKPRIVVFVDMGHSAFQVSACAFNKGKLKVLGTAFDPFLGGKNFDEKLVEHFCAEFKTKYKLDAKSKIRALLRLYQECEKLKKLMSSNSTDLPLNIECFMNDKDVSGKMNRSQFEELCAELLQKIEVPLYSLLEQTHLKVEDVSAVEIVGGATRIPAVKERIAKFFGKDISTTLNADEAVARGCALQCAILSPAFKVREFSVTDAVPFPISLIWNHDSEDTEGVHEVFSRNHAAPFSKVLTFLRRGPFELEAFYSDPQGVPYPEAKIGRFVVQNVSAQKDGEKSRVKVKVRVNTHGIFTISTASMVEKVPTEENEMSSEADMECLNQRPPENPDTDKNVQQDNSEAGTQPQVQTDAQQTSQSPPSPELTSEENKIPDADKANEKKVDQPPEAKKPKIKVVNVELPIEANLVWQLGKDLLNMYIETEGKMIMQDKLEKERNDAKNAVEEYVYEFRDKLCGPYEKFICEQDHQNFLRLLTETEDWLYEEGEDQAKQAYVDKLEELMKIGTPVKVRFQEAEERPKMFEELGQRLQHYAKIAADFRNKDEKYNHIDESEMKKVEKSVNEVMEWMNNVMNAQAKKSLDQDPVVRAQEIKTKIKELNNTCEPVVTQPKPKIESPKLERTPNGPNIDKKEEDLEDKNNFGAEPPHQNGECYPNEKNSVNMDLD

SMILES	hampering of cell proliferation (SW480 cells)	expression of anti-apoptotic protein Bcl2 (Bcl2 and Bcl-xL)	expression of anti-apoptotic protein Bcl-xL (Bcl2 and Bcl-xL)	hampering of cell proliferation (HCT116 cells)	Myd88 expression (NFκB signaling pathway; TMD8 and HBL1 DLBCL cell lines)	NFκB signaling pathway (P-p65) (NFκB signaling pathway; TMD8 and HBL1 DLBCL cell lines)	IkB phosphorylation (P-IKB) (NFκB signaling pathway)	percentage of interaction of STAT3:HSP110 (HSP110:STAT3 complex)
COc1ccc(-c2ncc(-c3ncc(-c4cc(OC)c(OC)c(OC)c4)cc3/C=C/c3ccccc3)cc2C)cc1OC [compound 33, (E)-6′-(3,4-Dimethoxyphenyl)-5′-methyl-3-styryl-5-(3,4,5-trimethoxyphenyl)-2,3′-bipyridine]	60%	reduce	reduce	around 40%	reduces	reduces; also recorded: strong decrease	decrease	20%
COc1cc(-c2cnc(-c3cnc(-c4cc(OC)c(OC)c(OC)c4)c(C)c3)c(/C=C/c3ccccc3)c2)cc(OC)c1OC [compound 52, (E)-5′-Methyl-3-styryl-5,6′-bis(3,4,5-trimethoxyphenyl)-2,3′-bipyridine]	82%	reduce	reduce	around 40%	–	strong decrease	decrease	5%
